The numbers were not newly measured in patent US8617611B2, “Polymeric compositions comprising therapeutic agents in crystalline phases, and methods of forming the same” (Cordis Corporation, priority 2005, dated 2013), which cites them from elsewhere.

Turning to `COc1ccc(/C=C/C(=O)Nc2ccccc2C(=O)O)cc1OC` [Tranilast], for the setting “DMSO”, the “solubility in dimethyl sulfoxide (DMSO)” value is “soluble”. For the same compound, the “solubility in other solvents such as methylene chloride” value (methylene chloride) is “not soluble”.
